Reference: US20190167647A1, “PHARMACEUTICAL COMPOSITION FOR STROKE TREATMENT BASED ON AMPK INHIBITION” (INDUSTRY ACADEMY COOPERATION FOUNDATION OF SEJONG UNIVERSITY, priority 2016, published 2019)

Experiments:
[1] = test system: male Sprague-Dawley (SD) rats; experiment: Acute toxicity test; type: in vivo; parameters: RBC: unit not given here; conditions: 75 μg/kg intra-cerebroventricular
Excerpt: This procedure was repeated 4 times.
Further, the rat was sacrificed, and specific organs such as the liver, spleen and kidney were extracted, followed by measurement of weights thereof (FIG. 7).

[2] = test system: mouse cortical cultures; experiment: TPEN-induced neurotoxicity (LDH secretion); type: cell-based
Excerpt: (§1) Generally, application of TPEN as a zinc chelator easily flowing into the cells causes a cell death in the form of typical apoptosis (EDTA is not introduced into the cells). When adding zinc to the above treatment, intracellular free zinc ions are retained thus to reduce neuronal death and further reduce caspase-3 protease activity in the apoptosis process. Under expectation such that: the drug #28 and clioquinol may not only serve as a chelator but also play a role of an ion permeable carrier; these drugs flow into cells as combined with zinc; thereafter, the zinc is removed from the drug because a concentration of free zinc in the cytoplasm is too low; therefore, the concentration of free zinc in the cytoplasm is increased thus to reduce neurotoxicity due to TPEN, caspase-3 activity and neurotoxicity (LDH secretion) were under observation after treatment using zinc, the drug #28 and clioquinol.

[3] = test system: neuronal cells; experiment: H2O2-mediated intracellular zinc increase, FluoZin-3 staining; type: cell-based; conditions: FluoZin-3, confocal microscopy
[4] = Calcium chelation with Fura-2 dye (test tube); type: physicochemical
Description: In order to determine whether the above result is obtained by the chelation of Ca^2+ ions other than the drug #28, protective effects of the drug #28 (10 to 60 μM) after treatment using ionomycin, which is a calcium ion permeable carrier (‘calcium ionophore’) directly increasing the intracellular calcium concentration, were under observation. Further, using a Fura-2 dye that is combined with calcium to represent fluorescence, it was monitored whether the drug #28 is combined with calcium on a test tube and represents chelating effects.

[5] = target: T1, recombinant AMPK (α2/β1/γ1) (Homo sapiens, UniProt P54646); experiment: AMPK enzymatic activity assay (CycLex kit); type: biochemical
T1 construct: purchased CycLex, Japan
Description: More particularly, AMPK enzymatic activity was measured by an AMPK activity assay kit (CycLex, Japan) and recombinant AMPK (α2/β1/γ1 CycLex, Japan).

[6] = test system: mouse cortical cultures; experiment: TPEN-induced caspase-3 activity; type: cell-based
Excerpt: as §1

T1 sequence (P54646 whole entry): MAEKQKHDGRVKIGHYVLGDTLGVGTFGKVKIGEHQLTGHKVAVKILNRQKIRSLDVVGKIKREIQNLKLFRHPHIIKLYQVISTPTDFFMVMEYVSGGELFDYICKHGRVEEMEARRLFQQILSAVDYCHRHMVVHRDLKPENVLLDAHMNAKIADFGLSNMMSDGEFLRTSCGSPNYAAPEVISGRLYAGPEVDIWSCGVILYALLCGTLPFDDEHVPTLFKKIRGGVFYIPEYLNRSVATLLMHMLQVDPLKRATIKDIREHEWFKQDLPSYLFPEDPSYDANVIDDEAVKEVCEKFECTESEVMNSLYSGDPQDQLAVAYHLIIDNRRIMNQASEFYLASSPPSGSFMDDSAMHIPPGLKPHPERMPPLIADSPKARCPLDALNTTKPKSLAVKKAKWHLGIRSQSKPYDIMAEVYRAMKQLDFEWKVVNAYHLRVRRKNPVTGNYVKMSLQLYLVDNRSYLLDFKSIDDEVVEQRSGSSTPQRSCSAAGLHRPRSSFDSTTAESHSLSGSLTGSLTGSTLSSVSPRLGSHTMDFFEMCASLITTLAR
T1 sequence (Q9Y478 whole entry partner): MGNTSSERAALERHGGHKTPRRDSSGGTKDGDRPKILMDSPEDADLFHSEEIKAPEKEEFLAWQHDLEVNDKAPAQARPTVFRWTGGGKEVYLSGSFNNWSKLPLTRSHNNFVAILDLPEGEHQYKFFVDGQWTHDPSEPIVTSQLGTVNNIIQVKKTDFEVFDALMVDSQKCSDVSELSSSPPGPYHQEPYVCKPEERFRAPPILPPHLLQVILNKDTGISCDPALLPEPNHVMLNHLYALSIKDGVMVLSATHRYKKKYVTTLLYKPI
T1 sequence (P54619 whole entry partner): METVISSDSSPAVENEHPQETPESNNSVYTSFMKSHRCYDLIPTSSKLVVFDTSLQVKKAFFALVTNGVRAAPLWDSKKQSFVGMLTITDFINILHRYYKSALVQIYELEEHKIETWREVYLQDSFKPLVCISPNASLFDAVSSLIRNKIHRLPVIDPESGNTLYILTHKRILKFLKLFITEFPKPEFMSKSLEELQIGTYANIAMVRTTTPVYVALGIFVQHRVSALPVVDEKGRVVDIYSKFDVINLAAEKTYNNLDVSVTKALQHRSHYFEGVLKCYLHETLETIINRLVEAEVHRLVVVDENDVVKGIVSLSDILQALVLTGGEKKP

What does the source list for `O=C1N=C(Nc2cccc(O)c2)S/C1=C\c1c[nH]c2ccccc12` [compound 28, (Z)-5-((1H-indol-3-yl)methylene)-2-((3-hydroxyphenyl)amino)thiazol-4(5H)-one]?
toxicity by blood indicators compared to control group [1]: noticeable toxicity was not observed; dead rats ([1]; 24 hours): dead rats were not found; ALT ([1]; n = 4, blood): 54.5 ± 8.2 U/L; AST ([1]; n = 4, blood): 142.3 ± 50.7 U/L; BUN ([1]; n = 4, blood): 17.6 ± 1.8 mg/dL; CREA ([1]; n = 4, blood): 0.5 ± 0.0 mg/dL; GLU ([1]; n = 4, blood): 174.6 ± 18.0 mg/dL; RBC ([1]; n = 4, blood): 7.4 ± 0.5 ×10^3; WBCB ([1]; n = 4, blood): 11.6 ± 1.9 ×10^3 cell/uL; neurotoxicity by TPEN [2]: decrease neurotoxicity by TPEN; zinc in the neuronal cells during H2O2 toxicity [3]: zinc reduction in the neuronal cells; affinity to calcium ions versus zinc ions [4]: lower affinity to calcium ions than zinc ions; chelating effects for calcium ([4]; Fura-2 dye, test tube): shows the chelating effects for calcium in a high concentration; remaining activity at 10 µM [5]: 3.97%; caspase-3 activity induced by TPEN [6]: significantly reduce caspase-3 activity induced by TPEN
